Data published in PubChem BioAssay (NCI).
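Where inhibition never reached the appropriate level, the endpoint shown equals the highest concentration tested. Otherwise, values were interpolated linearly from a five-concentration, 48-hour dose response in 96-well plates. The concentration for 50% growth inhibition is given as GI50. TGI: concentration producing complete growth inhibition.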

Experiments:
Experiment in all cases: NCI tumour cell line growth inhibition, 48 h
HL-60(TB) leukemia = test system: HL-60(TB) leukemia
HCT-116 colon = test system: HCT-116 colon
OVCAR-5 ovarian = test system: OVCAR-5 ovarian
OVCAR-4 ovarian = test system: OVCAR-4 ovarian
LOX IMVI melanoma = test system: LOX IMVI melanoma
SK-MEL-5 melanoma = test system: SK-MEL-5 melanoma
SNB-75 CNS = test system: SNB-75 CNS
NCI-H460 lung = test system: NCI-H460 lung
COLO 205 colon = test system: COLO 205 colon

Row | SMILES | GI50 (HL-60(TB) leukemia) | TGI (HL-60(TB) leukemia) | GI50 (HCT-116 colon) | TGI (HCT-116 colon) | GI50 (OVCAR-5 ovarian) | TGI (OVCAR-5 ovarian) | GI50 (OVCAR-4 ovarian) | TGI (OVCAR-4 ovarian) | GI50 (LOX IMVI melanoma) | TGI (LOX IMVI melanoma) | GI50 (SK-MEL-5 melanoma) | TGI (SK-MEL-5 melanoma) | GI50 (SNB-75 CNS) | TGI (SNB-75 CNS) | GI50 (NCI-H460 lung) | TGI (NCI-H460 lung) | GI50 (COLO 205 colon) | TGI (COLO 205 colon)
1 | C[CH2][Sn]([CH2]C)([O]C(=O)c1ccc(F)cc1)[O][Sn]([CH2]C)([CH2]C)[O]C(=O)c1ccc(F)cc1 | > 100 µM | > 100 µM | > 100 µM | > 100 µM | > 100 µM | > 100 µM | > 100 µM | > 100 µM | 37.4 µM | > 100 µM | > 100 µM | > 100 µM | 58.5 µM | > 100 µM | > 100 µM | > 100 µM | 59.7 µM | > 100 µM
2 | COC1CC(OC)C(O)C(CO)O1 (stereo unspecified) |  | > 100 µM |  | > 100 µM |  | > 100 µM |  | > 100 µM |  | > 100 µM |  | > 100 µM |  | > 100 µM |  | > 100 µM |  | 
3 | CCOC(=O)NC1CC2CCC1(OC)C=C2C (stereo unspecified) |  | > 100 µM |  | > 100 µM |  | > 100 µM |  | > 100 µM |  | > 100 µM |  | > 100 µM |  | > 100 µM |  | > 100 µM |  | > 100 µM
4 | C=C[C@H]1C=Cc2c(OC)cccc2[C@@H]1COP1(=S)NC(C)C(c2ccccc2)O1 (stereo partly specified) |  | 50.2 µM |  | > 100 µM |  |  |  | > 100 µM |  | > 100 µM |  | > 100 µM |  | > 100 µM |  | > 100 µM |  | > 100 µM
5 | COC(=O)Cc1cc(=O)n2c([nH]c3ccccc32)c1C#N |  | > 100 µM |  | > 100 µM |  | > 100 µM |  | > 100 µM |  | > 100 µM |  | > 100 µM |  | > 100 µM |  | > 100 µM |  | > 100 µM
6 | c1ccc2c(CNCCCCCCCCCCCCNCc3cccc4ccccc34)cccc2c1 |  | 3.12 µM |  | 2.95 µM |  | 2.94 µM |  | 3.05 µM |  | 2.52 µM |  | 3.27 µM |  | 3.21 µM |  | 2.95 µM |  | > 100 µM
7 | O=C(Cc1ccccc1)NS(=O)(=O)c1ccccc1 |  | > 100 µM |  | > 100 µM |  | > 100 µM |  | > 100 µM |  | > 100 µM |  |  |  | > 100 µM |  | > 100 µM |  | > 100 µM
8 | Cc1ccc(N2C(=O)C(Cl)=C(Cl)C2=O)cc1 |  |  |  | 32.9 µM |  | 35.9 µM |  | 34.4 µM |  | 55.5 µM |  | > 100 µM |  | 48.5 µM |  | > 100 µM |  | 30.7 µM
9 | CCOC(=O)C(C(=O)OCC)=c1sc(=C(C(=O)OCC)C(=O)OCC)s1 |  | > 100 µM |  |  |  | > 100 µM |  | > 100 µM |  | > 100 µM |  | > 100 µM |  | > 100 µM |  | > 100 µM |  | > 100 µM
10 | CC(C)c1ccc2nc3ccc(C(=O)NCCN4CCN(c5ccccc5)CC4)cn3c(=O)c2c1 |  |  |  | > 100 µM |  | > 100 µM |  | > 100 µM |  |  |  | 7.81 µM |  |  |  | > 100 µM |  | > 100 µM
11 | FC(F)(F)c1cccc(C2SCc3nc4ccccc4n32)c1 (stereo unspecified) |  | > 100 µM |  | > 100 µM |  | > 100 µM |  |  |  |  |  | > 100 µM |  | > 100 µM |  |  |  | > 100 µM
12 | COc1cc(Nc2nc3cc(C(F)(F)F)ccc3nc2C)cc(OC)c1OC |  |  |  | 21.1 µM |  | 26.7 µM |  | 34 µM |  | 10.9 µM |  | 25.2 µM |  | 39 µM |  | 17.7 µM |  | 25.3 µM
13 | O=C(O)[C@@H](NS(=O)(=O)c1ccc([N+](=O)[O-])cc1)c1ccccc1 |  | > 100 µM |  |  |  | > 100 µM |  | > 100 µM |  | > 100 µM |  | > 100 µM |  | > 100 µM |  | > 100 µM |  | > 100 µM
14 | c1ccc2c(c1)[nH]c1c2ncc2[nH]c3ccccc3c21 |  |  |  | 3.35 µM |  | 22.9 µM |  | 3.79 µM |  |  |  | 17.2 µM |  | 12.1 µM |  | 5.44 µM |  | 6.83 µM
15 | CC(C)c1cccc(C(C)C)c1NC(=O)CCC(=O)NN |  | > 100 µM |  | > 100 µM |  | > 100 µM |  | > 100 µM |  |  |  | > 100 µM |  | > 100 µM |  | > 100 µM |  | 36.1 µM
16 | CCCN1C(=O)CNC(=O)c2[nH]cnc21 |  | > 100 µM |  | > 100 µM |  | > 100 µM |  |  |  | > 100 µM |  | > 100 µM |  | > 100 µM |  | > 100 µM |  | > 100 µM
17 | COc1ccc(C2C3=C(COC3=O)Oc3cc4c(cc32)OCO4)cc1 (stereo unspecified) |  | 25 µM |  | > 100 µM |  |  |  | > 100 µM |  | > 100 µM |  | > 100 µM |  | 39.7 µM |  | > 100 µM |  | 63.6 µM
18 | COc1ccccc1NC(=O)C(CC(C(=O)Nc1ccccc1OC)/C(C)=N/NC(=O)c1ccccc1O)/C(C)=N/NC(=O)c1ccccc1O (stereo unspecified) |  | > 100 µM |  |  |  | > 100 µM |  | > 100 µM |  | > 100 µM |  | > 100 µM |  | > 100 µM |  | > 100 µM |  | > 100 µM
19 | CCOC(=O)c1cc(OC(=O)CC)c2c(OC)ccc(OC)c2c1 |  |  |  | > 100 µM |  | > 100 µM |  | > 100 µM |  |  |  | > 100 µM |  | 99 µM |  | > 100 µM |  | > 100 µM
20 | O=C(C=Nc1ccccc1C(=O)[O-])c1cccs1.O=C(C=Nc1ccccc1C(=O)[O-])c1cccs1.[Zn+2] |  | > 100 µM |  | > 100 µM |  | 71.9 µM |  |  |  | 71.5 µM |  |  |  | 35.3 µM |  | > 100 µM |  | > 100 µM
